Data as given in ChEMBL document CHEMBL1800042, “Generation of 3,8-substituted 1,2,4-triazolopyridines as potent inhibitors of human 11β-hydroxysteroid dehydrogenase type 1 (11β-HSD-1)” (Bioorg Med Chem Lett, 2011).
≈ marks a conversion by molar mass, not a printed value.

Test: Solubility of the compound at pH 7.4
Type: physicochemical
Settings: buffer

Row | SMILES | solubility [µg/mL]
1 | Cc1c(Cl)cccc1Oc1cccn2c(C34CCC(O)(CC3)CC4)nnc12 | 11 (≈ 28.7 µM)
2 | Cc1c(Cl)cccc1Oc1cccn2c(C34CCC(F)(CC3)CC4)nnc12 | 1 (≈ 2.59 µM)
3 | Cc1c(Cl)cccc1Oc1cccn2c(C34CCC(CC3)C4)nnc12 | 1 (≈ 2.83 µM)
